# Test results: publication PMC3445516 (PLoS ONE, 2012)
# Assays:
# Assay in all cases: Ambit kinase profiling, competition binding
# PAK1 = molecular target: T1, PAK1 (Homo sapiens, UniProt Q13153); conditions: compound concentration 10 uM, read-out: Percent Competition
# T1 construct: purchased Ambit Biosciences (KINOMEscan)
# Excerpt: (§1) Supplement pone.0044653.s004.xls, sheet "Compound 122" | column: Percent Competition
# PIK3CD = molecular target: T2, PIK3CD (Homo sapiens, UniProt O00329); conditions: compound concentration 10 uM, read-out: Percent Competition
# T2 construct: purchased Ambit Biosciences (KINOMEscan)
# Excerpt: as §1
# AMPK-alpha1 = molecular target: T3, AMPK-alpha1 (Homo sapiens, UniProt Q13131); conditions: compound concentration 10 uM, read-out: Percent Competition
# T3 construct: purchased Ambit Biosciences (KINOMEscan)
# Excerpt: as §1
# CSNK2A2 = molecular target: T4, CSNK2A2 (Homo sapiens, UniProt P19784); conditions: compound concentration 10 uM, read-out: Percent Competition
# T4 construct: purchased Ambit Biosciences (KINOMEscan)
# Excerpt: as §1
# MEK2 = molecular target: T5, MEK2 (Homo sapiens, UniProt P36507); conditions: compound concentration 10 uM, read-out: Percent Competition
# T5 construct: purchased Ambit Biosciences (KINOMEscan)
# Excerpt: as §1
# MINK = molecular target: T6, MINK (Homo sapiens, UniProt Q8N4C8); conditions: compound concentration 10 uM, read-out: Percent Competition
# T6 construct: purchased Ambit Biosciences (KINOMEscan)
# Excerpt: as §1
# MAP4K2 = molecular target: T7, MAP4K2 (Homo sapiens, UniProt Q12851); conditions: compound concentration 10 uM, read-out: Percent Competition
# T7 construct: purchased Ambit Biosciences (KINOMEscan)
# Excerpt: as §1
# LYN = molecular target: T8, LYN (Homo sapiens, UniProt P07948); conditions: compound concentration 10 uM, read-out: Percent Competition
# T8 construct: purchased Ambit Biosciences (KINOMEscan)
# Excerpt: as §1
# DRAK2 = molecular target: T9, DRAK2 (Homo sapiens, UniProt O94768); conditions: compound concentration 10 uM, read-out: Percent Competition
# T9 construct: purchased Ambit Biosciences (KINOMEscan)
# Excerpt: as §1
# FLT1 = molecular target: T10, FLT1 (Homo sapiens, UniProt P17948); conditions: compound concentration 10 uM, read-out: Percent Competition
# T10 construct: purchased Ambit Biosciences (KINOMEscan)
# Excerpt: as §1
# FER = molecular target: T11, FER (Homo sapiens, UniProt P16591); conditions: compound concentration 10 uM, read-out: Percent Competition
# T11 construct: purchased Ambit Biosciences (KINOMEscan)
# Excerpt: as §1
# WEE1 = molecular target: T12, WEE1 (Homo sapiens, UniProt P30291); conditions: compound concentration 10 uM, read-out: Percent Competition
# T12 construct: purchased Ambit Biosciences (KINOMEscan)
# Excerpt: as §1
# MAPKAPK2 = molecular target: T13, MAPKAPK2 (Homo sapiens, UniProt P49137); conditions: compound concentration 10 uM, read-out: Percent Competition
# T13 construct: purchased Ambit Biosciences (KINOMEscan)
# Excerpt: as §1
# CDK9 = molecular target: T14, CDK9 (Homo sapiens, UniProt P50750); conditions: compound concentration 10 uM, read-out: Percent Competition
# T14 construct: purchased Ambit Biosciences (KINOMEscan)
# Excerpt: as §1
# RIOK2 = molecular target: T15, RIOK2 (Homo sapiens, UniProt Q9BVS4); conditions: compound concentration 10 uM, read-out: Percent Competition
# T15 construct: purchased Ambit Biosciences (KINOMEscan)
# Excerpt: as §1
# LKB1 = molecular target: T16, LKB1 (Homo sapiens, UniProt Q15831); conditions: compound concentration 10 uM, read-out: Percent Competition
# T16 construct: purchased Ambit Biosciences (KINOMEscan)
# Excerpt: as §1
# ABL1(E255K) = molecular target: T17, ABL1(E255K) (Homo sapiens, UniProt P00519, E255K); conditions: compound concentration 10 uM, read-out: Percent Competition
# T17 construct: purchased Ambit Biosciences (KINOMEscan)
# Excerpt: as §1
# MLK2 = molecular target: T18, MLK2 (Homo sapiens, UniProt Q02779); conditions: compound concentration 10 uM, read-out: Percent Competition
# T18 construct: purchased Ambit Biosciences (KINOMEscan)
# Excerpt: as §1
# PIM3 = molecular target: T19, PIM3 (Homo sapiens, UniProt Q86V86); conditions: compound concentration 10 uM, read-out: Percent Competition
# T19 construct: purchased Ambit Biosciences (KINOMEscan)
# Excerpt: as §1
# PDGFRB = molecular target: T20, PDGFRB (Homo sapiens, UniProt P09619); conditions: compound concentration 10 uM, read-out: Percent Competition
# T20 construct: purchased Ambit Biosciences (KINOMEscan)
# Excerpt: as §1
# INSRR = molecular target: T21, INSRR (Homo sapiens, UniProt P14616); conditions: compound concentration 10 uM, read-out: Percent Competition
# T21 construct: purchased Ambit Biosciences (KINOMEscan)
# Excerpt: as §1
# CLK3 = molecular target: T22, CLK3 (Homo sapiens, UniProt P49761); conditions: compound concentration 10 uM, read-out: Percent Competition
# T22 construct: purchased Ambit Biosciences (KINOMEscan)
# Excerpt: as §1
# ABL1(M351T) = molecular target: T23, ABL1(M351T) (Homo sapiens, UniProt P00519, M351T); conditions: compound concentration 10 uM, read-out: Percent Competition
# T23 construct: purchased Ambit Biosciences (KINOMEscan)
# Excerpt: as §1
# FLT4 = molecular target: T24, FLT4 (Homo sapiens, UniProt P35916); conditions: compound concentration 10 uM, read-out: Percent Competition
# T24 construct: purchased Ambit Biosciences (KINOMEscan)
# Excerpt: as §1
# PRKG1 = molecular target: T25, PRKG1 (Homo sapiens, UniProt Q13976); conditions: compound concentration 10 uM, read-out: Percent Competition
# T25 construct: purchased Ambit Biosciences (KINOMEscan)
# Excerpt: as §1
# MYLK = molecular target: T26, MYLK (Homo sapiens, UniProt Q15746); conditions: compound concentration 10 uM, read-out: Percent Competition
# T26 construct: purchased Ambit Biosciences (KINOMEscan)
# Excerpt: as §1
# EPHB2 = molecular target: T27, EPHB2 (Homo sapiens, UniProt P29323); conditions: compound concentration 10 uM
# T27 construct: purchased Ambit Biosciences (KINOMEscan)
# Excerpt: as §1
# DCAMKL3 = molecular target: T28, DCAMKL3 (Homo sapiens, UniProt Q9C098); conditions: compound concentration 10 uM, read-out: Percent Competition
# T28 construct: purchased Ambit Biosciences (KINOMEscan)
# Excerpt: as §1
# DLK = molecular target: T29, DLK (Homo sapiens, UniProt Q12852); conditions: compound concentration 10 uM
# T29 construct: purchased Ambit Biosciences (KINOMEscan)
# Excerpt: as §1
# FYN = molecular target: T30, FYN (Homo sapiens, UniProt P06241); conditions: compound concentration 10 uM, read-out: Percent Competition
# T30 construct: purchased Ambit Biosciences (KINOMEscan)
# Excerpt: as §1
# TNK2 = molecular target: T31, TNK2 (Homo sapiens, UniProt Q07912); conditions: compound concentration 10 uM, read-out: Percent Competition
# T31 construct: purchased Ambit Biosciences (KINOMEscan)
# Excerpt: as §1
# [1] = molecular target: T32, JAK2(JH1domain-catalytic) (Homo sapiens, UniProt O60674); conditions: compound concentration 10 uM
# T32 construct: JAK2(JH1domain-catalytic); purchased Ambit Biosciences (KINOMEscan)
# Excerpt: as §1
# EPHA5 = molecular target: T33, EPHA5 (Homo sapiens, UniProt P54756); conditions: compound concentration 10 uM
# T33 construct: purchased Ambit Biosciences (KINOMEscan)
# Excerpt: as §1
# EPHA4 = molecular target: T34, EPHA4 (Homo sapiens, UniProt P54764); conditions: compound concentration 10 uM, read-out: Percent Competition
# T34 construct: purchased Ambit Biosciences (KINOMEscan)
# Excerpt: as §1
# MAPKAPK5 = molecular target: T35, MAPKAPK5 (Homo sapiens, UniProt Q8IW41); conditions: compound concentration 10 uM, read-out: Percent Competition
# T35 construct: purchased Ambit Biosciences (KINOMEscan)
# Excerpt: as §1
# MAP3K4 = molecular target: T36, MAP3K4 (Homo sapiens, UniProt Q9Y6R4); conditions: compound concentration 10 uM, read-out: Percent Competition
# T36 construct: purchased Ambit Biosciences (KINOMEscan)
# Excerpt: as §1
# PDGFRA = molecular target: T37, PDGFRA (Homo sapiens, UniProt P16234); conditions: compound concentration 10 uM, read-out: Percent Competition
# T37 construct: purchased Ambit Biosciences (KINOMEscan)
# Excerpt: as §1
# YSK1 = molecular target: T38, YSK1 (Homo sapiens, UniProt O00506); conditions: compound concentration 10 uM, read-out: Percent Competition
# T38 construct: purchased Ambit Biosciences (KINOMEscan)
# Excerpt: as §1
# FGFR3 = molecular target: T39, FGFR3 (Homo sapiens, UniProt P22607); conditions: compound concentration 10 uM, read-out: Percent Competition
# T39 construct: purchased Ambit Biosciences (KINOMEscan)
# Excerpt: as §1
# AXL = molecular target: T40, AXL (Homo sapiens, UniProt P30530); conditions: compound concentration 10 uM, read-out: Percent Competition
# T40 construct: purchased Ambit Biosciences (KINOMEscan)
# Excerpt: as §1
# ULK1 = molecular target: T41, ULK1 (Homo sapiens, UniProt O75385); conditions: compound concentration 10 uM
# T41 construct: purchased Ambit Biosciences (KINOMEscan)
# Excerpt: as §1
# NEK7 = molecular target: T42, NEK7 (Homo sapiens, UniProt Q8TDX7); conditions: compound concentration 10 uM, read-out: Percent Competition
# T42 construct: purchased Ambit Biosciences (KINOMEscan)
# Excerpt: as §1
compound,measurement,setting,value
Fc1ccc(-c2c(-c3ccncc3)[nH]c3nccnc23)cc1 [RO1155697-000-005],inhibition at 10 µM,PAK1,< 50%
same,inhibition at 10 µM,PIK3CD,< 50%
same,inhibition at 10 µM,AMPK-alpha1,< 50%
same,inhibition at 10 µM,CSNK2A2,< 50%
same,inhibition at 10 µM,MEK2,< 50%
same,inhibition at 10 µM,MINK,< 50%
same,inhibition at 10 µM,MAP4K2,< 50%
same,inhibition at 10 µM,LYN,< 50%
same,inhibition at 10 µM,DRAK2,< 50%
same,inhibition at 10 µM,FLT1,< 50%
same,inhibition at 10 µM,FER,< 50%
same,inhibition at 10 µM,WEE1,< 50%
same,inhibition at 10 µM,MAPKAPK2,< 50%
same,inhibition at 10 µM,CDK9,< 50%
same,inhibition at 10 µM,RIOK2,< 50%
same,inhibition at 10 µM,LKB1,< 50%
same,inhibition at 10 µM,ABL1(E255K),< 50%
same,inhibition at 10 µM,MLK2,< 50%
same,inhibition at 10 µM,PIM3,< 50%
same,inhibition at 10 µM,PDGFRB,< 50%
same,inhibition at 10 µM,INSRR,< 50%
same,inhibition at 10 µM,CLK3,< 50%
same,inhibition at 10 µM,ABL1(M351T),< 50%
same,inhibition at 10 µM,FLT4,< 50%
same,inhibition at 10 µM,PRKG1,< 50%
same,inhibition at 10 µM,MYLK,< 50%
same,Percent Competition,EPHB2,<50%
same,inhibition at 10 µM,DCAMKL3,< 50%
same,Percent Competition,DLK,<50%
same,inhibition at 10 µM,FYN,< 50%
same,inhibition at 10 µM,TNK2,< 50%
same,Percent Competition,[1],<50%
same,Percent Competition,EPHA5,<50%
same,inhibition at 10 µM,EPHA4,< 50%
same,inhibition at 10 µM,MAPKAPK5,< 50%
same,inhibition at 10 µM,MAP3K4,< 50%
same,inhibition at 10 µM,PDGFRA,< 50%
same,inhibition at 10 µM,YSK1,< 50%
same,inhibition at 10 µM,FGFR3,< 50%
same,inhibition at 10 µM,AXL,< 50%
same,Percent Competition,ULK1,<50%
same,inhibition at 10 µM,NEK7,< 50%
